Results taken from patent US20070128217A1 (priority 2003, published 2007).

What was measured:
[1] = system: control sera (pooled serum of ten healthy LUMC hospital workers; commercial negative donor pooled serum from the Dutch bloodbank); format: binding, human; design: Binding of Control serum LUMC to linear peptides / Binding of Control serum Blood-bank to linear peptides / Binding of Control serum LUMC to looped peptides / Binding of Control Serum Blood-Bank to Looped peptides / Binding of Control serum LUMC to linear peptides of the protein M of SARS-CoV Urbani / Binding of Control serum Blood-bank to linear peptides of the protein M of SARS-CoV Urbani / Binding of Control serum LUMC to looped peptides of the protein M of SARS-CoV Urbani / Binding of Control Serum Blood-Bank to Looped peptides of the protein M of SARS-CoV Urbani: unit not given here
[2] = system: antibodies in sera from SARS patients (sera 1a, 1b, 2, 6, 37, 62, London, SARS-yellow, SARS-green); format: binding, human; design: Binding of serum 6 to linear peptides of protein X1 of SARS-CoV Urbani / Binding of serum 37 to linear peptides of protein X1 of SARS-CoV Urbani / Binding of serum 6 to looped/cyclic peptide (PEPSCAN-ELISA) / Binding of serum 37 to looped/cyclic peptide (PEPSCAN-ELISA) / Binding of serum 37 to looped/cyclic peptides of protein X1 of SARS-CoV Urbani / Binding of serum 6 to linear peptides of protein X2 / Binding of serum 37 to linear peptides of protein X2 / Binding of serum 37 to looped/cyclic peptides of protein X2 of SARS-CoV Urbani / Binding of serum 6 to linear peptides of protein M of SARS-CoV Urbani / Binding of serum 37 to linear peptides of protein M of SARS-CoV Urbani / Binding of serum 6 to looped/cyclic peptides of protein M of SARS-CoV Urbani / Binding of serum 37 to looped/cyclic peptides of protein M of SARS-CoV Urbani / Binding of serum 6 to linear peptides of protein X3 of SARS-CoV Urbani / Binding of serum 37 to linear peptides of protein X3 of SARS-CoV Urbani / Binding of serum 37 to looped/cyclic peptides of protein X3 of SARS-CoV Urbani / Binding of serum 6 to linear peptides of protein X4 of SARS-CoV Urbani / Binding of serum 37 to linear peptides of protein X4 of SARS-CoV Urbani / Binding of serum 37 to looped/cyclic peptides of protein X4 of SARS-CoV Urbani / Binding of serum 6 to linear peptides of protein X5 of SARS-CoV Urbani / Binding of serum 37 to linear peptides of protein X5 of SARS-CoV Urbani / Binding of serum 37 to looped/cyclic peptides of protein X5 of SARS-CoV Urbani / Binding of serum 6 to linear peptides of protein N of SARS-CoV Urbani / Binding of serum 37 to linear peptides of protein N of SARS-CoV Urbani / Binding of serum 6 to linear peptide (PEPSCAN-ELISA) / Binding of serum 1a to looped/cyclic peptides of protein N of SARS-CoV Urbani / Binding of serum 1b to looped/cyclic peptides of protein N of SARS-CoV Urbani / Binding of serum 2 to looped/cyclic peptides of protein N of SARS-CoV Urbani / Binding of serum 6 to looped/cyclic peptides of protein N of SARS-CoV Urbani / Binding of serum 37 to looped/cyclic peptides of protein N of SARS-CoV Urbani / Binding of serum 62 to looped/cyclic peptides of protein N of SARS-CoV Urbani / Binding of serum London to looped/cyclic peptides of protein N of SARS-CoV Urbani / Binding of serum SARS-green to looped/cyclic peptides of protein N of SARS-CoV Urbani: unit not given here
[3] = system: rabbit serum obtained by immunizing a rabbit with the SARS-CoV strain Frankfurt 1; format: binding; design: Binding of a rabbit serum to linear peptides / Binding of a rabbit serum to looped peptides / Rabbit serum linear peptides / Rabbit serum looped peptides / Binding of a rabbit serum to linear peptides of protein N of SARS-CoV Urbani (Rabbit serum linear peptides) / Binding of a rabbit serum to looped/cyclic peptides of protein N of SARS-CoV Urbani (Rabbit serum looped peptides): unit not given here

Sequence: VASFRLFARTRSMWS
- Binding of Control Serum Blood-Bank to Looped peptides of the protein M of SARS-CoV Urbani [1]: 0.8
- Binding of Control serum Blood-bank to linear peptides of the protein M of SARS-CoV Urbani [1]: 0.7
- Binding of Control serum LUMC to linear peptides of the protein M of SARS-CoV Urbani [1]: 0.4
- Binding of Control serum LUMC to looped peptides of the protein M of SARS-CoV Urbani [1]: 0.6
- Binding of serum 1a to linear peptides of protein M of SARS-CoV Urbani [2]: 0.7
- Binding of serum 1b to linear peptides of protein M of SARS-CoV Urbani [2]: 0.5
- Binding of serum 2 to linear peptides of protein M of SARS-CoV Urbani [2]: 0.5
- Binding of serum 6 to linear peptides of protein M of SARS-CoV Urbani [2]: 0.3
- Binding of serum 37 to linear peptides of protein M of SARS-CoV Urbani [2]: 0.7
- Binding of serum 62 to linear peptides of protein M of SARS-CoV Urbani [2]: 0.8
- Binding of serum London to linear peptides of protein M of SARS-CoV Urbani [2]: 0.3
- Binding of serum SARS-green to linear peptides of protein M of SARS-CoV Urbani [2]: 0.3
- Binding of serum SARS-yellow to linear peptides of protein M of SARS-CoV Urbani [2]: 0.0
- Recognition of the peptide by sera of SARS-CoV infected individuals, and form (linear, looped/cyclic) in which it is recognized [2]: recognized in looped/cyclic form
- Rabbit serum linear peptides [3]: 0.8
- Rabbit serum looped peptides [3]: 0.4

Sequence: VFLWLLWPVTLACFV
- Binding of Control Serum Blood-Bank to Looped peptides of the protein M of SARS-CoV Urbani [1]: 0.8
- Binding of Control serum Blood-bank to linear peptides of the protein M of SARS-CoV Urbani [1]: 0.6
- Binding of Control serum LUMC to linear peptides of the protein M of SARS-CoV Urbani [1]: 0.6
- Binding of Control serum LUMC to looped peptides of the protein M of SARS-CoV Urbani [1]: 0.8
- Binding of serum 1a to linear peptides of protein M of SARS-CoV Urbani [2]: 0.8
- Binding of serum 1a to looped/cyclic peptides of protein M of SARS-CoV Urbani [2]: 0.7
- Binding of serum 1b to linear peptides of protein M of SARS-CoV Urbani [2]: 0.6
- Binding of serum 1b to looped/cyclic peptides of protein M of SARS-CoV Urbani [2]: 0.0
- Binding of serum 2 to linear peptides of protein M of SARS-CoV Urbani [2]: 0.6
- Binding of serum 2 to looped/cyclic peptides of protein M of SARS-CoV Urbani [2]: 0.7
- Binding of serum 6 to linear peptides of protein M of SARS-CoV Urbani [2]: 0.4
- Binding of serum 6 to looped/cyclic peptides of protein M of SARS-CoV Urbani [2]: 0.5
- Binding of serum 37 to linear peptides of protein M of SARS-CoV Urbani [2]: 0.5
- Binding of serum 37 to looped/cyclic peptides of protein M of SARS-CoV Urbani [2]: 0.7
- Binding of serum 62 to linear peptides of protein M of SARS-CoV Urbani [2]: 0.5
- Binding of serum 62 to looped/cyclic peptides of protein M of SARS-CoV Urbani [2]: 0.7
- Binding of serum London to linear peptides of protein M of SARS-CoV Urbani [2]: 0.5
- Binding of serum London to looped/cyclic peptides of protein M of SARS-CoV Urbani [2]: 0.2
- Binding of serum SARS-green to linear peptides of protein M of SARS-CoV Urbani [2]: 0.6
- Binding of serum SARS-green to looped/cyclic peptides of protein M of SARS-CoV Urbani [2]: 0.3
- Binding of serum SARS-yellow to linear peptides of protein M of SARS-CoV Urbani [2]: 0.3
- Binding of serum SARS-yellow to looped/cyclic peptides of protein M of SARS-CoV Urbani [2]: 0.8
- Rabbit serum linear peptides [3]: 0.3
- Rabbit serum looped peptides [3]: 0.3

Sequence: VIGFLFLAWIMLLQF
- Binding of Control Serum Blood-Bank to Looped peptides of the protein M of SARS-CoV Urbani [1]: 0.7
- Binding of Control serum Blood-bank to linear peptides of the protein M of SARS-CoV Urbani [1]: 0.5
- Binding of Control serum LUMC to linear peptides of the protein M of SARS-CoV Urbani [1]: 0.3
- Binding of Control serum LUMC to looped peptides of the protein M of SARS-CoV Urbani [1]: 0.7
- Binding of serum 1a to linear peptides of protein M of SARS-CoV Urbani [2]: 0.7
- Binding of serum 1a to looped/cyclic peptides of protein M of SARS-CoV Urbani [2]: 0.7
- Binding of serum 1b to linear peptides of protein M of SARS-CoV Urbani [2]: 0.4
- Binding of serum 1b to looped/cyclic peptides of protein M of SARS-CoV Urbani [2]: 0.4
- Binding of serum 2 to linear peptides of protein M of SARS-CoV Urbani [2]: 0.4
- Binding of serum 2 to looped/cyclic peptides of protein M of SARS-CoV Urbani [2]: 0.5
- Binding of serum 6 to linear peptides of protein M of SARS-CoV Urbani [2]: 0.3
- Binding of serum 6 to looped/cyclic peptides of protein M of SARS-CoV Urbani [2]: 0.5
- Binding of serum 37 to linear peptides of protein M of SARS-CoV Urbani [2]: 0.7
- Binding of serum 37 to looped/cyclic peptides of protein M of SARS-CoV Urbani [2]: 0.5
- Binding of serum 62 to linear peptides of protein M of SARS-CoV Urbani [2]: 0.7
- Binding of serum 62 to looped/cyclic peptides of protein M of SARS-CoV Urbani [2]: 0.7
- Binding of serum London to linear peptides of protein M of SARS-CoV Urbani [2]: 0.3
- Binding of serum London to looped/cyclic peptides of protein M of SARS-CoV Urbani [2]: 0.2
- Binding of serum SARS-green to linear peptides of protein M of SARS-CoV Urbani [2]: 0.2
- Binding of serum SARS-green to looped/cyclic peptides of protein M of SARS-CoV Urbani [2]: 0.3
- Binding of serum SARS-yellow to linear peptides of protein M of SARS-CoV Urbani [2]: 0.0
- Binding of serum SARS-yellow to looped/cyclic peptides of protein M of SARS-CoV Urbani [2]: 0.6
- Rabbit serum linear peptides [3]: 0.3
- Rabbit serum looped peptides [3]: 0.3

Sequence: VIGVAFLAVFQSATK
- Binding of Control Serum Blood-Bank to Looped peptides [1]: 0.5
- Binding of Control serum Blood-bank to linear peptides [1]: 0.5
- Binding of Control serum LUMC to linear peptides [1]: 0.5
- Binding of Control serum LUMC to looped peptides [1]: 0.5
- Binding of serum 1a to linear peptides of protein X1 of SARS-CoV Urbani [2]: 0.5
- Binding of serum 1a to looped/cyclic peptide (PEPSCAN-ELISA) [2]: 0.4
- Binding of serum 1b to linear peptides of protein X1 of SARS-CoV Urbani [2]: 0.4
- Binding of serum 1b to looped/cyclic peptide (PEPSCAN-ELISA) [2]: 0.3
- Binding of serum 2 to linear peptides of protein X1 of SARS-CoV Urbani [2]: 0.4
- Binding of serum 2 to looped/cyclic peptide (PEPSCAN-ELISA) [2]: 0.3
- Binding of serum 6 to linear peptides of protein X1 of SARS-CoV Urbani [2]: 0.4
- Binding of serum 6 to looped/cyclic peptide (PEPSCAN-ELISA) [2]: 0.6
- Binding of serum 37 to linear peptides of protein X1 of SARS-CoV Urbani [2]: 0.5
- Binding of serum 37 to looped/cyclic peptide (PEPSCAN-ELISA) [2]: 0.4
- Binding of serum 62 to linear peptides of protein X1 of SARS-CoV Urbani [2]: 0.4
- Binding of serum 62 to looped/cyclic peptide (PEPSCAN-ELISA) [2]: 0.4
- Binding of serum London to linear peptides of protein X1 of SARS-CoV Urbani [2]: 0.2
- Binding of serum London to looped/cyclic peptide (PEPSCAN-ELISA) [2]: 0.7
- Binding of serum SARS-green to linear peptides of protein X1 of SARS-CoV Urbani [2]: 0.1
- Binding of serum SARS-green to looped/cyclic peptide (PEPSCAN-ELISA) [2]: 0.2
- Binding of serum SARS-yellow to linear peptides of protein X1 of SARS-CoV Urbani [2]: 0.2
- Binding of serum SARS-yellow to looped/cyclic peptide (PEPSCAN-ELISA) [2]: 0.5
- Binding of a rabbit serum to linear peptides [3]: 0.1
- Binding of a rabbit serum to looped peptides [3]: 0.6
